This note sets out measurements from US11446254B2, “Drug carrier having self-assembled 3-D nucleic acid nanostructure” (KOREA INSTITUTE OF SCIENCE AND TECHNOLOGY, priority 2014, dated 2022).

For this test, the system named is SCC7 cells. The format is in vivo. Particulars: 18 days therapy.

Procedure: A balb/c nude mouse (5 weeks old, male) was used as an experimental animal group, and a tumor was formed by subcutaneously inoculating SCC7 cells (1.0×10^6 cells suspended in the culture medium) into the left thigh of the mouse. When the tumor volume became approximately 50 mm^3, the tumor was used for the experiment.
For the selective therapy of cancer tissue, DOX was each loaded into L-Td55 and L-Td92, which are a carrier having cancer tissue selectivity.
The therapy experiment was performed by classifying the mice into total six groups (PBS, L-Td55, L-Td92, free DOX, DOX@L-Td55, and DOX@L-Td92), and 7 mice per group were used. Before the therapy was performed each time, the tumor volume and the mouse body weight were measured. In this case, the tumor volume was calculated by a method of (minor axis^2*major axis)/2. Each sample was injected into the caudal vein of the mice completely subjected to measurement (see Slide #2 for concentration), the therapy was performed once every three days, and the therapy was performed total 6 times.

With `COc1cccc2c1C(=O)c1c(O)c3c(c(O)c1C2=O)C[C@@](O)(C(=O)CO)C[C@@H]3O[C@H]1C[C@H](N)[C@H](O)[C@H](C)O1` [free DOX, doxorubicin], the Therapeutic effect entry is on record as “slight therapeutic effects”.
